Measurements published in patent US20190249134A1, “CELL CULTURES AND USE THEREOF” (Boston Biomedical, Inc., priority 2016, published 2019).

Legend:
A549 cells = assay: Sphere formation assay in alginate-based 3D cell culture, IC50 compared with clonogenic assay in conventional 2D culture; details: for IC50 in the alginate-based 3D cell culture relative to the conventional 2D culture: 3D sphere formation vs 2D clonogenic assay, FIG. 4A; for fold change resistance (IC50 in alginate-based 3D cell culture divided by IC50 in conventional 2D culture): FIG. 4B
From the text: Without limiting the scope of the present disclosure or appended claims with any particular theory or hypothesis, since the stemness is associated with a resistance to chemotherapy, cells cultured in an alginate-based 3D cell culture may be more resistant to chemotherapy drugs and more sensitive to stemness-targeting drugs than cells cultured in traditional 2D cultures. To evaluate the response of cells to drugs, the IC50 values of cells in both the alginate-based 3D and the conventional 2D cell cultures were determined. FIG. 4A summarizes the IC50 of the CSC-targeting therapies (BBI-608, BBI-503), chemotherapies (doxorubicin and gemcitabine), and a targeted therapy (sunitinib) with respect to A549 cells in the alginate-based 3D cell culture and the traditional 2D culture. […] To compare the effect of culturing cells in the alginate-based 3D and the conventional 2D cell cultures on IC50, the fold change in resistance can be calculated by obtaining the ratio of IC50 value in the alginate-based 3D cell culture to the IC50 value in the conventional 2D culture.
Into each well of a flat bottom-96 well plate, 30 μL suspension of the cells in alginate solution was dispensed. 9 μL of crosslinking solution was then added to each well to form alginate gels and thus embed A549 cells into the gel matrix. The plates were then incubated for 15 minutes at 37° C. to ensure a complete gelling of alginate, and then cultured in Prime XV media overnight. After the overnight culture, the cells were treated with various concentrations of BBI-608, BBI-503, sunitinib, doxorubicin, or gemcitabine for 24 h. The plates were then washed and cultured in fresh media for an additional 11 days before imaging the cultures with Celigo Imaging Cytometer (Nexcelcom Bioscience, Lawrence, Mass.). The number of spheres were counted, and used to calculate the IC50 values using Prism 5 (GraphPad).
A549 cells were plated in 6-well plates (1×10^3 A549 cells/well). After an overnight incubation in DMEM media, the cells were treated with various concentrations of BBI-608 for 24h, or BBI-503, sunitinib, doxorubicin, and gemcitabine for 72 hours. The plates were washed, and cultured in fresh media for an additional 6 days before staining the colonies with Giemsa Stain (Sigma, St. Louis, Mo.). The colonies were imaged using a ChemiDoc™ MP Imaging System (BioRad), and the number of colonies were counted using ImageJ (National Institutes of Health, Bethsada, Md.), and the IC50 values calculated using Prism 5.

A549 cellular spheroids = assay: Efficacy on pre-formed cellular spheroids in alginate-based 3D cell culture (CellTox dead stain); details: pre-formed A549 spheroids (11 days), concentrations near IC50 values, 7 days after drug treatment; FIG. 5
Experimental: To evaluate the efficacy of the drugs in diffusion-limited environments, A549 cells were embedded and cultured for 11 days before any drug treatment (BBI-608, BBI-503, gemcitabine, or doxorubicin). Spheroids of A549 cells were pre-formed from single cells embedded in an alginate-based 3D cell culture for 11 days. The pre-formed spheroids were treated with drugs (0.3 μM BBI-608, 2.5 μM BBI-503, 30 μM sunitinib, 4 μM doxorubicin, 0.5 μM gemcitabine) and incubated with the dead stain CellTox Dye. Micrographs were taken 7 days after the drug treatments.
In a 6-well plate, A549 cells were embedded in an alginate-based 3D cell culture and cultured for 11 days before addition of BBI-608, BBI-503, sunitinib, doxorubicin, and gemcitabine. Cells were cultured for an additional 7 days before staining them with CellTox™ Green Dye (Promega) to stain the dead cells. Images of the stained samples were taken using an EVOS fluorescence microscope (Life Technologies, Carlsbad, Calif.).

SMILES: CCN(CC)CCNC(=O)c1c(C)[nH]c(/C=C2\C(=O)Nc3ccc(-c4csc(-c5ccccc5)n4)cc32)c1C [BBI-503]
- IC50 in the alginate-based 3D cell culture relative to the conventional 2D culture (A549 cells): lower
- fold change resistance (IC50 in alginate-based 3D cell culture divided by IC50 in conventional 2D culture) (A549 cells): less than single-fold
- cell death, share of spheroids (A549 cellular spheroids): about 90%

SMILES: CC(=O)c1cc2c(o1)C(=O)c1ccccc1C2=O [BBI-608, 2-acetylnaphtho[2,3-b]furan-4,9-dione]
- IC50 in the alginate-based 3D cell culture relative to the conventional 2D culture (A549 cells): lower
- fold change resistance (IC50 in alginate-based 3D cell culture divided by IC50 in conventional 2D culture) (A549 cells): less than single-fold
- cell death, share of spheroids (A549 cellular spheroids): about 90%

SMILES: COc1cccc2c1C(=O)c1c(O)c3c(c(O)c1C2=O)C[C@@](O)(C(=O)CO)C[C@@H]3O[C@H]1C[C@H](N)[C@H](O)[C@H](C)O1 [doxorubicin, reference compound]
- IC50 in the alginate-based 3D cell culture relative to the conventional 2D culture (A549 cells): greater

SMILES: Nc1ccn([C@@H]2O[C@H](CO)[C@@H](O)C2(F)F)c(=O)n1 [gemcitabine, reference compound]
- IC50 in the alginate-based 3D cell culture relative to the conventional 2D culture (A549 cells): greater
